Patent US7981904B2, “Acetyl CoA carboxylase inhibitors” (Takeda Pharmaceutical Company Limited, priority 2008, dated 2011)

Tests used:
Human ACC1 = molecular target: T1, Human ACC1 (Homo sapiens, UniProt Q13085); test: in vitro enzymatic ACC activity assay (malachite green, absorbance at 620 nm), ACC1; format: biochemical; conditions: recombinant His-tagged human ACC1, 8 μg/mL; 60 min preincubation, 20 min reaction at 30° C.
T1 construct: made in house; host or cells: SF-9 insect cells (baculovirus, pFAST-BacHTc)
Method: (§1) Provided in Example A is an in vitro enzymatic ACC activity assay for activity against ACC. The binding affinity of the test compound to ACC1 or ACC2 is determined by the changes in absorbance (at 620 nm); […]. It should be noted that a variety of other expression systems and hosts are also suitable for the expression of ACC, as would be readily appreciated by one of skill in the art.
A. Purification of Human ACC1
Human ACC1 cDNA was amplified from human liver cDNA by polymerase chain reaction using primers; 5′[…]3′ (SEQ ID NO. 1) and 5′[…]3′ (SEQ ID NO: 2). The amplified DNA fragment was digested by restriction enzyme SalI and NotI, and cloned into pFAST-BacHTc (Invitrogen). This plasmid DNA was used for preparation of recombinant vaculovirus with BAC-TO-BAC Baculovirus Expression System (Invitrogen).
SF-9 cells were infected with the vaculovirus and cultured at 27° C. for 3 days. Harvested cells were homogenized in buffer A (25 mM HEPES (pH7.5), 130 mM NaCl, 1 mM EDTA, 25 mM sodium glycerophosphate, 1 mM sodium orthovanadate, 10% glycerol, complete protease inhibitor), and subjected to ultracentrifuge at 185700×g for 50 min at 4° C. ACC1 protein with 6×His-tag at the N-terminal was purified from the supernatant using Ni-NTA Super Flow Gel (QIAGEN). Eluted protein was dialysed against buffer B (50 mM HEPES (pH 7.5), 300 mM NaCl, 10 mM MgCl2, 10 mM tripotassium citrate, 2 mM dithiothreitol) and concentrated using Vivaspin20 ultrafiltration tube (Sartorius).
(§2) C. Measurement of ACC Activity
(§3) Malachite green solution was prepared by mixing 100 mL of solution A (0.12% malachite green in 5N H2SO4), 25 mL of solution B (7.5% ammonium molybdate) and 2 mL of solution C (11% TWEEN-20).
(§4) ACC1 was diluted to 8 μg/mL in reaction buffer (50 mM HEPES pH7.5, 10 mM MgCl2, 10 mM tripotassium citrate, 2 mM DTT, 0.75 mg/mL fatty acid free BSA) and 10 μL diluted enzyme solution was pored into each well of 384-well clear bottom plate. Test compound was diluted in the reaction buffer and 5 μL of the compound solution was added into each well, and the mixture was incubated at 30° C. for 60 minutes. Reaction was initiated by addition of 5 μL substrate solution (50 mM KHCO3, 200 μM ATP, 200 μM acetyl-CoA). After incubation at 30° C. for 20 minutes, reaction was terminated by addition of 5 μL malachite green solution and absorbance at 620 nm was measured.
(§5) Percent activity at each concentration of compound was calculated from the following equation:
(§6) [formula] where Abs is absorbance, Avg is average.
(§7) Data were subjected to nonlinear regression analysis using GraphPad Prism Software (GraphPad Software Inc.) to obtain IC50 values.

Human ACC2 = molecular target: T2, Human ACC2 (Homo sapiens, UniProt O00763); test: in vitro enzymatic ACC activity assay (malachite green, absorbance at 620 nm), ACC2; format: biochemical; conditions: recombinant His-tagged human ACC2, 6.4 μg/mL; same method as ACC1
T2 construct: made in house; host or cells: SF-9 insect cells (baculovirus, pFAST-BacHTa)
Method: as §1
B. Purification of Human ACC2
Human ACC2 cDNA except coding region for mitochondria localization sequence was amplified from human skeletal muscle cDNA by polymerase chain reaction using primers; 5′[…]3′ (SEQ ID NO: 3) and 5′[…]3′ (SEQ ID NO: 4). The amplified DNA fragment was digested by SalI and AflIII, and cloned into pFAST-BacHTa (Invitrogen). Preparation of recombinant vaculovirus, infection of the virus to SF-9 cells and purification of recombinant ACC2 protein with 6×His-tag at the N-terminal were performed in the same method as described above.
as §2, §3, §4
ACC2 was diluted to 6.4 μg/mL in reaction buffer, and the activity was measured by the same method as described for ACC1.
as §5, §6, §7

T2 sequence (O00763 117-2458 limits assumed): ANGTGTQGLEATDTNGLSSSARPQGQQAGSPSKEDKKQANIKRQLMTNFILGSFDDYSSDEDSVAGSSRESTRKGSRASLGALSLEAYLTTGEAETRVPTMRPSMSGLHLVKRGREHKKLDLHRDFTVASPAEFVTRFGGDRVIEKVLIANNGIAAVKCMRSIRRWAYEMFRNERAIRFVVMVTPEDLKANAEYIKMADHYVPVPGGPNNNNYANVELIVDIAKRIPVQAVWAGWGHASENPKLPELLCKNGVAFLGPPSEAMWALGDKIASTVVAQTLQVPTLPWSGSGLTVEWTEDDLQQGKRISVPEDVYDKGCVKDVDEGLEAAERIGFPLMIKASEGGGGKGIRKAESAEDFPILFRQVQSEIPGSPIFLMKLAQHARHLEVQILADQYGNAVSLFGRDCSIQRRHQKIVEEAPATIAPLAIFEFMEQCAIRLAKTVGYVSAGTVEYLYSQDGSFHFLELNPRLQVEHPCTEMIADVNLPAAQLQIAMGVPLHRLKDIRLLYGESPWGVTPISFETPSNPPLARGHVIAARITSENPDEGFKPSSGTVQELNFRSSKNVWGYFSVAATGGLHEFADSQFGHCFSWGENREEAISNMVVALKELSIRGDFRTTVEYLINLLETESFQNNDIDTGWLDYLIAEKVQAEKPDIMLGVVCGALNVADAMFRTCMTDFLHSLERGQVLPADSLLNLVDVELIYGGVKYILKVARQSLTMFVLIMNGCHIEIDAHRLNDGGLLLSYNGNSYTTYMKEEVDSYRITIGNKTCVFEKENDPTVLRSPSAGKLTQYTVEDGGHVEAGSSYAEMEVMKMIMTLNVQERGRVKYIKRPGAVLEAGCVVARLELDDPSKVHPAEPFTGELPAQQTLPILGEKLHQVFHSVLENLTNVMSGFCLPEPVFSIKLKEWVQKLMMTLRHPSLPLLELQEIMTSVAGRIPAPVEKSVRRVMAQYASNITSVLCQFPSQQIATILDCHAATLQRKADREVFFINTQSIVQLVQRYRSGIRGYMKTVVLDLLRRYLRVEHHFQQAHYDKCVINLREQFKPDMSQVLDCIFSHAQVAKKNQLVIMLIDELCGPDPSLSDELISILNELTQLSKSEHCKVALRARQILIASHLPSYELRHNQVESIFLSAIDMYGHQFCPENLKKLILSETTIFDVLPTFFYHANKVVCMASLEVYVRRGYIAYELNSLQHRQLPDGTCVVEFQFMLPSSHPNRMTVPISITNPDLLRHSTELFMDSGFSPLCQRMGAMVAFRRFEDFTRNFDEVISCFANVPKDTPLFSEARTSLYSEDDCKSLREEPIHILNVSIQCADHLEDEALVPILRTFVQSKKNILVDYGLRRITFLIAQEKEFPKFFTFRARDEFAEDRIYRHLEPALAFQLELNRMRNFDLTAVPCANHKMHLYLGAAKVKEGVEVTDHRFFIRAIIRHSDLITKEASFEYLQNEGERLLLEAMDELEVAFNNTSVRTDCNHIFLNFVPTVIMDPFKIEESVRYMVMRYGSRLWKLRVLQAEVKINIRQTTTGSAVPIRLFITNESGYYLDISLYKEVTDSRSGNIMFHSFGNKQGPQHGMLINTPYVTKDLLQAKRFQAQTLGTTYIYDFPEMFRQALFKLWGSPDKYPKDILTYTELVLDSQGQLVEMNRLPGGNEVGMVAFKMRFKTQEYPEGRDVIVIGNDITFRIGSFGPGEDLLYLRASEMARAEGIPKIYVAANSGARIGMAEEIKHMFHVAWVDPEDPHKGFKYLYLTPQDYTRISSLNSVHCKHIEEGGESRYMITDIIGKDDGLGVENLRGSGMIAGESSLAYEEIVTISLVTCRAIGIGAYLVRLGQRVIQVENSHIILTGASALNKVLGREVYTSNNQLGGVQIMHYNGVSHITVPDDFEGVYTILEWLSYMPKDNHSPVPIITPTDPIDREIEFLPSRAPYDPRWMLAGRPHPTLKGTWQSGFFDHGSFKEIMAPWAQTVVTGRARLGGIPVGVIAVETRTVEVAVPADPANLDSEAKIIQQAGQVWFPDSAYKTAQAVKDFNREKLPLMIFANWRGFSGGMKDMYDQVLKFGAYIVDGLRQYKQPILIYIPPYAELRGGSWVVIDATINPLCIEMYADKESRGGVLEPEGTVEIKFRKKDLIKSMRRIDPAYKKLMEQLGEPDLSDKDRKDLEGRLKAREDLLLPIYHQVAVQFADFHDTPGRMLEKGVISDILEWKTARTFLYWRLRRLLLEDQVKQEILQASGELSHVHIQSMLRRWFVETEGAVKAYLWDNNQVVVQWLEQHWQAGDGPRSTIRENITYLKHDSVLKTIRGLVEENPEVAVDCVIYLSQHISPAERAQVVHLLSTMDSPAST

IC50 (Human ACC1) | IC50 (Human ACC2) | Structure (SMILES)
> 10 µM | > 10 µM | CCNC(=O)Nc1sc2ccccc2c1C(=O)N1CCC(N)(C#N)CC1 [Compound 6, 1-(3-(4-amino-4-cyanopiperidine-1-carbonyl)benzo[b]thiophen-2-yl)-3-ethylurea]
> 10 µM | 1 to 10 µM | CCNC(=O)Nc1sc2ccccc2c1C(=O)N1CCC2(CC1)N=C(Cn1cc(CN(C)C)nn1)NC2=O [Compound 35, 1-(3-(2-((4-((dimethylamino)methyl)-1 H-1,2,3-triazol-1-yl)methyl)-4-oxo-1,3,8-triazaspiro[4.5]dec-1-enecarbonyl)benzo[b]thiophen-2-yl)-3-ethylurea]
1 to 10 µM | < 1 µM | CCNC(=O)Nc1sc2ccccc2c1C(=O)N1CCC2(CC1)N=C(Cn1cc(C3CC3)nn1)NC2=O [Compound 38, 1-(3-(2-((4-cyclopropyl-1 H-1,2,3-triazol-1-yl)methyl)-4-oxo-1,3,8-triazaspiro[4.5]dec-1-enecarbonyl)benzo[b]thiophen-2-yl)-3-ethylurea]
> 10 µM | 1 to 10 µM | CCNC(=O)Nc1sc2ccccc2c1C(=O)N1CCC2(CC1)N=C(CS(C)(=O)=O)NC2=O [Compound 4, 1-ethyl-3-(3-(2-(methylsulfonylmethyl)-4-oxo-1,3,8-triazaspiro[4.5]dec-1-enecarbonyl)benzo[b]thiophen-2-yl)urea]
1 to 10 µM | 1 to 10 µM | CCNC(=O)Nc1sc2ccccc2c1C(=O)N1CCC2(CC1)N=C(CSc1ccc(F)cc1)NC2=O [Compound 21, 1-ethyl-3-(3-(2-((4-fluorophenylthio)methyl)-4-oxo-1,3,8-triazaspiro[4.5]dec-1-enecarbonyl)benzo[b]thiophen-2-yl)urea]
> 10 µM | < 1 µM | CCNC(=O)Nc1sc2ccccc2c1C(=O)N1CCC2(CC1)N=C(COc1ccccc1C(N)=O)NC2=O [Compound 27, 2-((8-(2-(3-ethylureido)benzo[b]thiophene-3-carbonyl)-4-oxo-1,3,8-triazaspiro[4.5]dec-1-en-2-yl)methoxy)benzamide]
1 to 10 µM | 1 to 10 µM | CCNC(=O)Nc1sc2ccccc2c1C(=O)N1CCC2(CC1)N=C(COC(C)C)NC2=O [Compound 29, 1-ethyl-3-(3-(2-(isopropoxymethyl)-4-oxo-1,3,8-triazaspiro[4.5]dec-1-enecarbonyl)benzo[b]thiophen-2-yl)urea]

Second part, the compound before the results:

Structure (SMILES) | IC50 (Human ACC1) | IC50 (Human ACC2)
CCCCC1=NC2(CCN(C(=O)c3c(NC(=O)NCC)sc4ccccc34)CC2)C(=O)N1 [Compound 15, 1-(3-(2-butyl-4-oxo-1,3,8-triazaspiro[4.5]dec-1-enecarbonyl)benzo[b]thiophen-2-yl)-3-ethylurea] | 1 to 10 µM | < 1 µM
CCNC(=O)Nc1sc2c(OC)cccc2c1C(=O)N1CCC2(CC1)N=C(CCl)NC2=O [Compound 9, 1-(3-(2-(chloromethyl)-4-oxo-1,3,8-triazaspiro[4.5]dec-1-enecarbonyl)-7-methoxybenzo[b]thiophen-2-yl)-3-ethylurea] | 1 to 10 µM | 1 to 10 µM
CCNC(=O)Nc1sc2c(OC)cccc2c1C(=O)N1CCC2(CC1)N=C(CCC(=O)OCC)NC2=O [Compound 11, ethyl 3-(8-(2-(3-ethylureido)-7-methoxybenzo[b]thiophene-3-carbonyl)-4-oxo-1,3,8-triazaspiro[4.5]dec-1-en-2-yl)propanoate] | < 1 µM | < 1 µM
CCNC(=O)Nc1sc2c(OC)cccc2c1C(=O)N1CCC2(CC1)N=C(COC1CCCCC1)NC2=O [Compound 32, 1-(3-(2-(cyclohexyloxymethyl)-4-oxo-1,3,8-triazaspiro[4.5]dec-1-enecarbonyl)-7-methoxybenzo[b]thiophen-2-yl)-3-ethylurea] | < 1 µM | < 1 µM
CCNC(=O)Nc1sc2ccccc2c1C(=O)N1CCC2(CC1)N=C(Cn1cc(C(C)(C)C)nn1)NC2=O [Compound 36, 1-(3-(2-((4-tert-butyl-1 H-1,2,3-triazol-1-yl)methyl)-4-oxo-1,3,8-triazaspiro[4.5]dec-1-enecarbonyl)benzo[b]thiophen-2-yl)-3-ethylurea] | 1 to 10 µM | < 1 µM
CCCCC1=NC2(CCN(C(=O)c3c(NC(=O)NCC)sc4c(OC)cccc34)CC2)C(=O)N1 [Compound 17, 1-(3-(2-butyl-4-oxo-1,3,8-triazaspiro[4.5]dec-1-enecarbonyl)-7-methoxybenzo[b]thiophen-2-yl)-3-ethylurea] | < 1 µM | < 1 µM
CCNC(=O)Nc1sc2c(OC)cccc2c1C(=O)N1CCC2(CC1)N=C(COCC(C)C)NC2=O [Compound 31, 1-ethyl-3-(3-(2-(isobutoxymethyl)-4-oxo-1,3,8-triazaspiro[4.5]dec-1-enecarbonyl)-7-methoxybenzo[b]thiophen-2-yl)urea] | < 1 µM | < 1 µM
CCNC(=O)Nc1sc2ccccc2c1C(=O)N1CCC(N)(C(N)=O)CC1 [Compound 7, 4-amino-1-(2-(3-ethylureido)benzo[b]thiophene-3-carbonyl)piperidine-4-carboxamide] | > 10 µM | > 10 µM
CCNC(=O)Nc1sc2ccccc2c1C(=O)N1CCC2(CC1)N=C(COc1ccccc1C#N)NC2=O [Compound 26, 1-(3-(2-((2-cyanophenoxy)methyl)-4-oxo-1,3,8-triazaspiro[4.5]dec-1-enecarbonyl)benzo[b]thiophen-2-yl)-3-ethylurea] | > 10 µM | < 1 µM
CCNC(=O)Nc1sc2ccccc2c1C(=O)N1CCC2(CC1)N=C(COCC(C)C)NC2=O [Compound 30, 1-ethyl-3-(3-(2-(isobutoxymethyl)-4-oxo-1,3,8-triazaspiro[4.5]dec-1-enecarbonyl)benzo[b]thiophen-2-yl)urea] | 1 to 10 µM | < 1 µM
CCNC(=O)Nc1sc2ccccc2c1C(=O)N1CCC2(CC1)N=C(COc1ccccc1OC)NC2=O [Compound 25, 1-ethyl-3-(3-(2-((2-methoxyphenoxy)methyl)-4-oxo-1,3,8-triazaspiro[4.5]dec-1-enecarbonyl)benzo[b]thiophen-2-yl)urea] | 1 to 10 µM | < 1 µM
CCNC(=O)Nc1sc2ccccc2c1C(=O)N1CCC2(CC1)N=C(CCl)NC2=O [Compound 8, 1-(3-(2-(chloromethyl)-4-oxo-1,3,8-triazaspiro[4.5]dec-1-enecarbonyl)benzo[b]thiophen-2-yl)-3-ethylurea] | > 10 µM | 1 to 10 µM
CCNC(=O)Nc1sc2ccccc2c1C(=O)N1CCC2(CC1)N=C(CSC)NC2=O [Compound 3, 1-ethyl-3-(3-(2-(methylthiomethyl)-4-oxo-1,3,8-triazaspiro[4.5]dec-1-enecarbonyl)benzo[b]thiophen-2-yl)urea] | 1 to 10 µM | 1 to 10 µM
CCNC(=O)Nc1sc2ccccc2c1C(=O)N1CCC2(CC1)N=C(C[S+]([O-])C(C)C)NC2=O (centres unmarked) [Compound 23, 1-ethyl-3-(3-(2-(isopropylsulfinylmethyl)-4-oxo-1,3,8-triazaspiro[4.5]dec-1-enecarbonyl)benzo[b]thiophen-2-yl)urea] | > 10 µM | < 1 µM
CCNC(=O)Nc1sc2ccccc2c1C(=O)N1CCC2(CC1)N=C(CS(=O)(=O)C(C)C)NC2=O [Compound 24, 1-ethyl-3-(3-(2-(isopropylsulfonylmethyl)-4-oxo-1,3,8-triazaspiro[4.5]dec-1-enecarbonyl)benzo[b]thiophen-2-yl)urea] | 1 to 10 µM | < 1 µM
